Here are results for five molecules from article PMC6017447, “Novel 6- and 7-Substituted Coumarins with Inhibitory Action against Lipoxygenase and Tumor-Associated Carbonic Anhydrase IX” (Molecules : A Journal of Synthetic Chemistry and Natural …, 2018).

For data set [1], the target named is T1, soybean lipoxygenase (LOX) (Glycine max, UniProt P08170).
T1 construct: purchased Sigma Chemical, Co. (St. Louis, MO, USA)
T1 sequence (P08170 1-839): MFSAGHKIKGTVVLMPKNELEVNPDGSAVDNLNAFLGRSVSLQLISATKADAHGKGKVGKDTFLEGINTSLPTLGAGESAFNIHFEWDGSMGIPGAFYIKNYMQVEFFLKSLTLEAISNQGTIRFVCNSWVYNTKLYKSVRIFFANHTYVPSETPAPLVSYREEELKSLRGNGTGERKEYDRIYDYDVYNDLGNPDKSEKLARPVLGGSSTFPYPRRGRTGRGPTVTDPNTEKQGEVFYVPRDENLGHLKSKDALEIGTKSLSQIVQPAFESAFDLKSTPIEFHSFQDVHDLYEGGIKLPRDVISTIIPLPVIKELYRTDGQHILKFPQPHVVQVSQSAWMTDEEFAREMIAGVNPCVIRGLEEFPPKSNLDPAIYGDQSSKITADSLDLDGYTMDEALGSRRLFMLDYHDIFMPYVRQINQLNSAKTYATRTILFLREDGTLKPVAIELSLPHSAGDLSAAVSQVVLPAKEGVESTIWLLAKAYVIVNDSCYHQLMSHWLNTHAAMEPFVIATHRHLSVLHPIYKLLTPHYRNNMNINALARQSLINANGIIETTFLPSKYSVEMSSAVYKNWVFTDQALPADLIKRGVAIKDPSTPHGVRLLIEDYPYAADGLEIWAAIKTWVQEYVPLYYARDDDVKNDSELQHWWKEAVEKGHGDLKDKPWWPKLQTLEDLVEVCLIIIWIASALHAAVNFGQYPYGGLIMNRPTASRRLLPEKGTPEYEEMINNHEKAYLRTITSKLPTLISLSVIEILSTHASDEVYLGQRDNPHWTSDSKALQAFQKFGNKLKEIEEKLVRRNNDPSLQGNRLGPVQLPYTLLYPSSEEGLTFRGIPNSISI
The arrangement: method as in doi:10.1007/s00044-017-1800-6. The settings on record: 100 μM compound; footnote d; cited from earlier work.

Another data set deals with hCA I (Homo sapiens, UniProt P00915). As to the kind of experiment: stopped flow CO2 hydrase assay, hCA I.
Chain of hCA I (P00915 whole entry): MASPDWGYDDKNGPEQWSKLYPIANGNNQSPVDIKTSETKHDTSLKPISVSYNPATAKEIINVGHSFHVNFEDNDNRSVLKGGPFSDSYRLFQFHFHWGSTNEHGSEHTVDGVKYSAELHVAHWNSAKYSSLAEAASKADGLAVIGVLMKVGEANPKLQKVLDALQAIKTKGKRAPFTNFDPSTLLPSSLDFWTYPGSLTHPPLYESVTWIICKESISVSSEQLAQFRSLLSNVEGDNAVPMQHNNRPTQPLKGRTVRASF
For another data set, the target named is hCA II (Homo sapiens, UniProt P00918). As to the kind of experiment: stopped flow CO2 hydrase assay, hCA II.
The next data set concerns the target hCA IV (Homo sapiens, UniProt P22748). As to the kind of experiment: stopped flow CO2 hydrase assay, hCA IV.
A further data set addresses hCA IX (Homo sapiens, UniProt Q16790). In words: stopped flow CO2 hydrase assay, hCA IX.
Data set [2] concerns the target T1, soybean lipoxygenase (LOX). In words: in vitro inhibition of soybean lipoxygenase, UV absorbance based enzyme assay. The following applies: 100 μM compound; sodium linoleate 0.1 mM, pH 9; read-out: % LOX Inhibition at 100 Μμ. It is filed as biochemical. The protocol:
Most of the LOX inhibitors are antioxidants or free radical scavengers. LOXs contain a non-heme iron per molecule in the enzyme active site as high-spin Fe^2+ in the native state and the high spin Fe^3+ in the activated state.
A DMSO solution of the tested compound was incubated with sodium linoleate (0.1 mM) and 0.2 mL of soybean LOX solution (1/9 × 10^−4 w/v in saline) in buffer pH 9 (tris) and at room temperature.

The term melting point denotes the temperature of the solid-liquid transition. What is called Ki is a dissociation constant, usually derived from enzyme kinetics or from competition with a known ligand. A low value points to tighter binding. Usually inhibition stands for the percentage by which the read-out fell short of the control.

Chain of hCA IV (P22748 19-312): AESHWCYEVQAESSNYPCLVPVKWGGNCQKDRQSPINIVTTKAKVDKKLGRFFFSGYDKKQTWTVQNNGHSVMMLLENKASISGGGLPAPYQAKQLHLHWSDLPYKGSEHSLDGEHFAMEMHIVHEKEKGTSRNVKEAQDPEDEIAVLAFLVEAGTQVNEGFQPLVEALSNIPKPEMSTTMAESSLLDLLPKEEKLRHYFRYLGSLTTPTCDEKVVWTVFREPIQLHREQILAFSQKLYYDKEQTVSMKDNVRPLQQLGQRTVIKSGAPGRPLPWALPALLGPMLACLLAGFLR
Description for hCA II: (§1) An Applied Photophysics (Oxford, UK) stopped-flow instrument has been used for assaying the CA catalysed CO2 hydration activity [36]. […] The uncatalyzed rates were determined in the same manner and subtracted from the total observed rates. Stock solutions of inhibitor (0.1 mM) were prepared in distilled-deionized water and dilutions up to 0.01 nM were done thereafter with distilled-deionized water. […] The inhibition constants were obtained by non-linear least-squares methods using PRISM 3, as reported earlier [42, 43, 44, 45, 46, 47, 48, 49, 50] and represent the mean from at least three different determinations. The four CA isoforms were recombinant proteins obtained as reported earlier in our laboratory [42, 43, 44, 45, 46, 47, 48, 49, 50].
Description for hCA IV: as §1
Description for hCA IX: as §1

Molecule `CCOC(=O)COc1ccc2ccc(=O)oc2c1` [Compound 2a, Ethyl 2-((2-oxo-2H-chromen-7-yl)oxy)acetate] had a melting point of 112.9 to 113 °C. Also, the “% LOX Inhibition at 100 Μμ” value in data set [1] is reported as 16%. Further, the Ki on hCA I was more than 10 µM. The molecule also returned an inhibition constant (Ki) at hCA II of more than 10 µM. The molecule also showed a Ki on hCA IV of 5.57 µM. Further, on hCA IX, affinity was put at a Ki of 0.247 µM.
With `CCOC(=O)COc1ccc2oc(=O)ccc2c1` [Compound 2b, Ethyl 2-((2-oxo-2H-chromen-6-yl)oxy)acetate], the melting point was in the range of 120 to 122 °C. Besides, the “% LOX Inhibition at 100 Μμ” value in data set [1] was 41%. The Ki at hCA I is more than 10 µM. This molecule also yielded an inhibitory constant (Ki) at hCA II of more than 10 µM. The molecule also showed a Ki at hCA IV of more than 10 µM. Moreover, the inhibitory constant (Ki) at hCA IX came to 2.04 µM.
Turning to `O=C(O)COc1ccc2ccc(=O)oc2c1` [Compound 3a, 2-((2-Oxo-2H-chromen-7-yl)oxy)acetic acid], in data set [1], the “% LOX Inhibition at 100 Μμ” value is on record as 50%. Besides, the Ki is more than 10 µM on hCA I, more than 10 µM at hCA II, 8.48 µM on hCA IV and 0.29 µM on hCA IX.
As to `O=C(O)COc1ccc2oc(=O)ccc2c1` [Compound 3b, 2-((2-Oxo-2H-chromen-6-yl)oxy)acetic acid], the “% LOX Inhibition at 100 Μμ” value in data set [1] is 50%. The Ki is more than 10 µM on hCA I, more than 10 µM at hCA II, more than 10 µM on hCA IV and 0.195 µM on hCA IX.
With `O=C(COc1ccc2oc(=O)ccc2c1)NCCN1CCCCC1` [Compound 13b, 2-((2-Oxo-2H-chromen-6-yl)oxy)-N-(2-(piperidin-1-yl)ethyl)acetamide], the melting point lay in the range of 115 to 116 °C. Moreover, the inhibition at 100 µM in data set [2] came to 37.6%. Moreover, at hCA I, the inhibition constant (Ki) is more than 10 µM. This molecule came in with an inhibition constant Ki at hCA II of more than 10 µM. Also, the Ki at hCA IV was more than 10 µM. Further, at hCA IX, affinity was put at a Ki of 0.274 µM.
